Source: ChEMBL document CHEMBL2429754, “Design of novel focal adhesion kinase inhibitors using 3D-QSAR and molecular docking” (Med Chem Res, 2013)

Tested on: 4T1
Experiment: Induction of apoptosis in mouse 4T1 cells after 72 hrs using propidium iodide staining byflow cytometry analysis
Assay type: functional, cell-based
Details: 4T1, 72 h

IC50: 100 nM
SMILES: CNC(=O)c1ccccc1Nc1cc(Nc2ccc(N3CCOCC3)cc2OC)ncc1C(F)(F)F
